“Also recorded” adds a separate entry of the source. Where two headings read alike, the source gives them in different places.
How the values were obtained:
calpain in WM266-4 cells = test: Calpain activity assay (Calpain-Glo); format: cell-based, human; conditions: 100 μM; 30 min, 4 and 24 h
Description: The Calpain-Glo Protease Assay (Promega cat #) was used to measure the calpain enzyme activity in live cells, according to the manufacturer's instructions. 1,250 of WM-266-4 cells were plated in 384-well white TC-treated plates in 5 μL of serum-free EMEM media. The cells were incubated overnight at 37° C., 5% CO2 and 95% relative humidity and 5 μL of test compounds 2155-14, (100 μM), calpain inhibitor III and PD151746 (25 μM) were added alone or in combination and incubated at 37° C., 5% CO2, and 95% relative humidity for 0.5, 4, and 24 h. After incubation, 10 μL, of a freshly prepared dilution of the Calpain-Glo Reagent stock solution (consisting of Suc-LLVY-Glo™ substrate, Calpain-Glo™ buffer, Luciferin Detection Reagent, and CaCl2) was added to cells at above mentioned times and luminescence was recorded with a Neo 2 microplate reader (Biotek Inc). All experiments were performed in triplicate and the values provided are the calculated average of at least three independent experiments.

WM266-4 cells [1] = test: Mitochondrial potential assay; format: cell-based, human; conditions: 1 and 4 h; time stated at the place
Description: 5,000 WM266-4 cells were seeded in 100 μL of EMEM medium supplemented with 10% FBS in 24-well plate. The cells were treated with carbonyl cyanide m-chlorophenyl hydrazone (CCCP, 25-50 μM) as a pharmacological control and 1-100 μM of 2155-14. After 1, 4, and 24 h, the cells were stained with 200 nM of Mito-Tracker dye (ThermoFisher cat #M22425) and DAPI for 1 h. Finally, the cells were washed with PBS and media was added. The cells were imaged and analyzed using Cytation 5 imager using Cy5 and DAPI filter sets (Biotek Inc, Winoosky, Vt.). To calculate staining intensity, the Object Sum Area value from Cy5 channel was obtained and divided by number of cells using DAPI channel. Both Cy5 and DAPI cell counts were conducted using optimized algorithm in automatic mode. 3 replicate wells were used.

[2] = tested on: LC3-II and beclin-1 in M14 cells; test: Western blotting for LC3 and beclin-1, M14; format: cell-based, human; conditions: 24 h, 100 μM
Description: 1×10^6 of WM266-4 or M14 cells were seeded in 3 mL of E-MEM or RPMI-1640 medium supplemented with 10% FBS and 1% penicillin/streptomycin in 6 cm plates. […] After washing with TBST, the membranes were treated with chemilumiscent horseradish peroxidase detection reagent (Thermo Scientific, Cat #32209) and exposed to autoradiography film (Denville Scientific, Inc., Metuchen, N.J., USA, cat #E3018). ImageJ software (NIH, Bethesda, Md.) was used to quantify the intensity of proteins bands. The protein bands were normalized against loading controls (β-actin) and expressed as a fold of an untreated control.

[3] = tested on: MAPK/PI3K dual phosphorylation of WM266-4 cells; test: MAPK-Akt flow cytometry assay; format: cell-based, human; conditions: 48 h, 25 μM
Description: WM266-4 cells were seeded at 250,000 cells/well in E-MEM medium supplemented with 10% FBS and 1% penicillin/streptomycin in 6 well plates (Greiner Bio-One CellStar cat #655180) and allowed to adhere overnight. After incubation cells were treated with control (25 μM dabrafenib+25 μM trametinib), and 25 μM 2155-14 and 18 for 24 and 48 hours. Manufacturer's instructions for Muse™ PI3K/MAPK Dual Pathway Activation kit (EMD Millipore MCH200108) were followed. Cells were harvested, washed with PBS, and re-suspended in 1× assay buffer supplemented with fixation buffer and incubated on ice for 10 min. Cells were permeabilized with permeablization buffer supplied with the kit and incubated with an antibody cocktail (5 μL of Anti-Akt/PKB+5 μL of Anti-phospho-Akt). Cells were analyzed on Muse flow cytometer (EMD Millipore) using PI3K/MAPK Dual Pathway sub-routine.

WM266-4 cells [4] = test: Annexin V flow cytometry assay; format: cell-based, human; conditions: 100 μM
From the text: After 4, 24 and 48 hrs of compound exposure the adherent and floating cells were combined and stained using the TACS Annexin V-FITC Apoptosis detection kit (Trevigen Inc, Gaithersburg, Md., USA) using manufacturer's protocol. Viable, necrotic, early and late apoptotic cells were counted using Accuri flow cytometer as per the manufacturer instructions.

M14 cells = tested on: M14 cells
Description: ApoTox-Glo™ Triplex Assay which allows one to simultaneously assess the effect of small molecules on cell viability, toxicity, caspase activity, and cell cycle all in the same well (Niles, A. L.; Moravec, R. A.; Riss, T. L. In vitro viability and cytotoxicity testing and same-well multi-parametric combinations for high throughput screening. Curr Chem Genomics 2009, 3, 33-41) was utilized. First, a mixture of 2 fluorogenic substrates was added to cells. GF-AFC substrate is cell-permeant and non-lytic to cells, allowing the measurement of active protease inside live cells. The second substrate (bis-AAF-R110 Substrate) is not cell-permeable and is only cleaved when proteases are released from cells due to the loss of membrane integrity typical of cell death. This step generates an inversely correlated measurement of cell viability and toxicity.
The second addition is luminogenic DEVD-peptide substrate for caspase-3/7 and Ultra-Glo™ Recombinant Thermostable Luciferase. Caspase-3/7 cleavage of the substrate generates a luminescent signal which correlates with caspase-3/7 activation as a key indicator of apoptosis. As markers for cytotoxicity and apoptosis are transient, the assay was conducted in time course format with time points at 4, 24, 48, and 72 h.
M14 #5 cells were plated in 384-well format at a density of 1,250 cells in 5 μL of serum-free DMEM media and incubated at 37° C. in 5% CO2 for 4 h. Control and test compounds were serially diluted in a ratio of 1:3 and added to wells in 4 μL. […] Plates were incubated at 37° C. in 5% CO2 for 4, 24, 48, and 72 h. At the end of each time point Viability/Cytotoxicity™ Reagent was prepared containing 400 μM glycylphenylalanyl-aminofluorocoumarin (GF-AFC) substrate (cleavable by live cell proteases) and 400 μM bis-alanylalanyl-phenylalanyl-rhodamine 110 (bis-AAF-R110) substrate (cleavable by dead cell proteases). 4 μL of the Viability/Cytotoxicity™ Reagent was used per well. The plate was incubated for 30 min at 37° C. Fluorescence was read at λEx=400 nm and λEm=505 nm for GF-AFC and λEx=485 nm and λEm=520 nm for bis-AAF-R110 on the BioTek Synergy™ 4 Multi-Mode Microplate Reader. Caspase-Glo® 3/7 Reagent was then added in 12 μL volume. The plate was incubated for 30 min at room temperature and luminescence was measured on the BioTek Synergy™ 4 Multi-Mode Microplate Reader.

[5] = time course 4-72 h, time stated at the place

**Q.** Which results are given for `O=C1NC[C@H](Cc2ccccc2)N(C[C@@H]2CCCN2C[C@@H](CC2CCCCC2)N2C[C@H](Cc3ccc(O)cc3)N(CCc3ccccc3)C(=O)C2=O)C1=O` [Compound 2155-14, (S)-1((R)-1((S)-2-(((S)-6-benzyl-2,3-dioxopiperazin-1-yl)methyl)pyrrolidin-1-yl)-3-cyclohexylpropan-2-yl)-5-(4-hydroxybenzyl)-4-phenethylpiperazine-2,3-dione]?
**A.** calpain activity (calpain in WM266-4 cells): Calpain activity at 30 min was at the baseline level; also recorded: time-dependent increase of activity at 4 and 24 h; mitochondrial potential (WM266-4 cells [1]): no significant effect 1 h after the addition of compounds; also recorded: At 4 h, mitochondrial potential was decreased; also recorded: no significance between untreated control and cells treated with 2155-14; LC3-II level, M14 [2]: dose dependent increase; beclin-1 level, M14 [2]: dose dependent increase; PI3K-activated cells [3]: absence of PI3K activation; cells with single pathway activation [3]: not significantly affected; decrease of cell population with dual pathway activation vs untreated control [3]: ~20%; increase of cells where both pathways were inactive [3]: approximately 10%; early apoptotic and necrotic cells, of total population (WM266-4 cells [4]): less than 5%; cells undergoing late apoptosis (WM266-4 cells [4]; 24 h): 18%; cells undergoing late apoptosis (WM266-4 cells [4]; 48 h): 32%; cells undergoing late apoptosis in presence of Z-VAD-FMK (WM266-4 cells [4]; 48 h, 10 μM pan-caspase inhibitor): 29%; caspase signal (M14 cells; 24 h): 550 % of untreated control; caspase signal (M14 cells; 48 h): 400 % of untreated control; ApoTox caspase-3/7 activity (M14 cells; [5]): no markers for apoptosis and cytotoxicity; also recorded: The 24 h time point was characterized by a significant spike in caspase activity; also recorded: By 72 h the caspase signal has decayed; ApoTox viability (live cell protease) (M14 cells; [5]): no effect on cell viability as measured by live cell protease at the 4 h time point; also recorded: dose dependent response at 48 h

**Q.** Which “effect on MAPK/PI3K cell populations” value [3] does the source give for `O=C1NC[C@H](Cc2ccccc2)N(C[C@@H]2CCCN2C[C@H](Cc2ccccc2)N2C[C@H](Cc3ccc(O)cc3)N(CCC34CC5CC(CC(C5)C3)C4)C(=O)C2=O)C1=O` [Compound 2155-18, (S)-4-(2-(adamantan-1yl)ethyl)-1-((S)-1-((S)-2-(((S)-6-benzyl-2,3-dioxopiperazin-1-yl)methyl)pyrrolidin-1-yl)-3-phenylpropan-2-yl)-5-(4-hydroxybenzyl)piperazine-2,3-dione] here?
**A.** no effect on either cell population
